From patent publication US5389643A, “Aminobenzoic acid derivatives useful for treating gastro-intestinal conditions” (Eisai Co., Ltd., priority 1992, dated 1995)
Where a name gives a salt, the structure may show the parent alone. Read-outs that look alike come from different tables or passages of the source.

Columns and labels:
[1] = system: contraction of guinea pig ileum induced by electrical field stimulation (acetylcholine release); assay: Effect of increasing contraction of guinea pig ileum induced by electrical field stimulation; assay type: cell-based; conditions: electrical field stimulation once per 10 seconds, cumulative addition at intervals of 10 minutes, 37° C., read-out: Min. concn. causing increment of ileal contraction
Method: Effect of increasing contraction of guinea pig ileum induced by electrical field stimulation
This experiment was made according to the method of Sanger et al. [see Br. J. Pharmacol., 91, 77-87 (1987)]. The longitudinal muscle of the nonterminal ileum of a guinea pig was separated and vertically suspended in the Krebs-Henseleit solution (37° C.) in a Magnus tube by applying a load of 0.5 g to the end of the muscle. A mixed gas comprising 95% of oxygen and 5% of carbon dioxide was passed through the solution. The contraction of the muscle was isometrically determined. Electrical field stimulation was applied to the muscle by the use of a platinum electrode once per 10 seconds to induce the contraction of the muscle. The contraction was caused through the release of acetylcholine. After the muscle had been stabilized, a solution of a test compound was cumulatively added into the Magnus tube at intervals of 10 minutes. The effect of the test compound is represented by percentage based on the initial contraction. The minimum concentration of each test compound at which an increment was found in the contraction due to the release of acetylcholine is shown in Table 4.

[2] = target: T1, 2-methylserotonin-induced contraction of the ileum (5-HT3 antagonism) (Cavia porcellus, UniProt O70212); assay: Antagonism against 2-methylserotonin-induced contraction or systole of ileum; assay type: cell-based, guinea pig (Hartley male); conditions: test compound added 30 minutes before 2-methylserotonin, nonterminal ileum, 37° C.; for Kb: read-out: pA2 (converted)
T1 construct: from tissue; host or cells: isolated nonterminal ileum of male Hartley guinea pig
T1 sequence (O70212 20-490): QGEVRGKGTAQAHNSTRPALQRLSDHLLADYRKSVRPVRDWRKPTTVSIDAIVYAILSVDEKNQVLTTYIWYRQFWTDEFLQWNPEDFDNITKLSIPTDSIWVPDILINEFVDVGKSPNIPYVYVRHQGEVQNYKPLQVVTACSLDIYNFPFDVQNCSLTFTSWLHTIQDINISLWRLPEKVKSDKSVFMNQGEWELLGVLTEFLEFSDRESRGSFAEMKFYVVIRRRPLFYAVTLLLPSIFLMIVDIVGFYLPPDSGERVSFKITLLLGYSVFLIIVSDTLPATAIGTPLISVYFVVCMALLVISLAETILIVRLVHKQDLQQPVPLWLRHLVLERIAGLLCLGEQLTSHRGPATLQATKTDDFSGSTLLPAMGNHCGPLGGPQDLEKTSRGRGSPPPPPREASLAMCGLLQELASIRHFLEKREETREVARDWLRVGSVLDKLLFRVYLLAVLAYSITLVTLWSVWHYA
Method: Antagonism against 2-methylserotonin-induced contraction or systole of ileum
This experiment was made according to the method of Sanger et al. [see Eur. J. Pharmacol., 159, 113-124 (1989)]. The nonterminal ileum of a Hartley male guinea pig was suspended in the Krebs-Henseleit solution (37° C.) by applying a load of 0.5 g to the end of the ileum and a gaseous mixture comprising 95% of oxygen and 5% of carbon dioxide was passed through the solution. The contraction of the ileum was isometrically determined. After allowing the ileum to stand for one or more hours for stabilization, a solution of a test compound was added to the solution, and after 30 minutes, 2-methylserotonin was noncumulatively added. The pA2 value was calculated from the rightward shift of the dose-response curve of the 2-methylserotonin-induced contraction caused by the test compound according to the method of Rossum et al. [see Arch. Int. Pharmacodyn., 143, 299(1963)]. BRL 24682 was used as a control in this experiment.

[3] = system: gastric emptying function; assay: Activity for raising gastric emptying function; assay type: in vivo, Fischer male rats; conditions: oral (5 ml/kg), one hour before test food, versus control rat
Method: Activity for raising gastric emptying function
This experiment was made according to the method of Decktot et al. [see Eur. J. Pharmacol., 147, 313-316 (1988)]. Fischer male rats (weight: 160 to 180 g) were fasted for 18 hours before 3 ml of a test food comprising methylcellulose, beef broth, casein, sugar and corn starch was orally administered to each rat. One hour after the administration, the stomach was extirpated from each rat. The gastric emptying ratio was calculated from the weight of the test food remaining in the stomach. The ratio of rise of the gastric emptying function was determined by comparing the gastiric emptying ratio of a medicated rat with that of a control rat which had not administered any test compounds. Each test compound (5 ml/kg) was orally administered one hour before the administration of the test food. BRL 24682 was used as a control in this experiment.

SMILES	minimal effective concentration ([1]; Cavia porcellus, 10 min) [µM]	Kb [2] [nM]	Ratio of rise of gastric emptying function [3] [%]	other results
C#CC(CC)Oc1cc(N)c(Cl)cc1C(=O)N[C@H]1C[C@H]2CC[C@@H](C1)N2C (stereo partly drawn) [Example 20, endo-4-Amino-5-chloro-N-(8-methyl-8-azabicyclo[3.2.1]oct-3-yl)-2-{(1-pentyn-3-yl)oxy}benzamide hydrochloride]	0.11			
C#CC(CCC)Oc1cc(N)c(Cl)cc1C(=O)N[C@H]1C[C@H]2CC[C@@H](C1)N2C (stereo partly drawn) [Example 29, endo-4-Amino-5-chloro-2-{(1-hexyn-3-yl)oxy}-N-(8-methyl-8-azabicyclo[3.2.1]oct-3-yl)benzamide hydrochloride]	0.26	0.457	20.6	
C#CC(CC)Oc1cc(N)c(Cl)cc1C(=O)N[C@H]1C[C@H]2CC[C@@H](C1)N2C (single isomer, unassigned; (+)) [Example 38, (+)-endo-4-Amino-5-chloro-N-(8-methyl-8-azabicyclo[3.2.1]oct-3-yl)-2-{(1-pentyn-3-yl)oxy}benzamide hydrochloride]		0.955		Ratio of rise of gastric emptying function ([3]; listed as 38 (+)-isomer, hydrochloride): 20.5%; minimal effective concentration ([1]; listed as 38 (-)-isomer, hydrochloride): 0.13 µM
CCC#CCC(C)Oc1cc(N)c(Cl)cc1C(=O)N[C@H]1C[C@H]2CC[C@@H](C1)N2C (stereo partly drawn) [Example 26, endo-4-Amino-S-chloro-2-{(4-heptyn-2-yl)oxy}-N-(8-methyl-8-azabicyclo[3.2.1]oct-3-yl)benzamide hydrochloride]	> 100	0.468		
CN1[C@@H]2CC[C@H]1C[C@@H](NC(=O)c1cc(Cl)c(N)cc1OCCCC#N)C2 [Example 31, endo-4-Amino-5-chloro-2-(3-cyanopropoxy)-N-(8-methyl-8-azabicyclo[3.2.1]oct-3-yl)benzamide hydrochloride]	> 100			
COc1cc(N)c(Cl)cc1C(=O)NC1CC2CCC(C1)N2C (stereo not shown) [BRL 24682, reference compound]			12.9	pA2 [2]: 7.80; minimal effective concentration [1]: 0.086 µM
C#CC(CC)Oc1cc(N)c(Cl)cc1C(=O)N[C@H]1C[C@H]2CC[C@@H](C1)N2C (single isomer, unassigned; (-)) [Example 37, (-)-endo-4-Amino-5-chloro-N-(8-methyl-8-azabicyclo[3.2.1]oct-3-yl)-2-{(1-pentyn-3-yl)oxy}benzamide hydrochloride]				Ratio of rise of gastric emptying function ([3]; listed as 37 (-)-isomer, hydrochloride): 15.3%; minimal effective concentration ([1]; listed as 37 (+)-isomer, hydrochloride): 0.048 µM
CC#CC(CC)Oc1cc(N)c(Cl)cc1C(=O)N[C@H]1C[C@H]2CC[C@@H](C1)N2C (stereo partly drawn) [Example 27, endo-4-Amino-5-chloro-2-{(2-hexyn-4-yl)oxy}-N-(8-methyl-8-azabicyclo[3.2.1]oct-3-yl)benzamide hydrochloride]	0.25	0.407	17.2	
CN1[C@@H]2CC[C@H]1C[C@@H](NC(=O)c1cc(Cl)c(N)cc1OCCF)C2 [Example 30, endo-4-Amino-5-chloro-2-(2-fluoroethoxy)-N-(8-methyl-8-azabicyclo[3.2.1]oct-3-yl)benzamide hydrochloride]	0.038			
CCC#CC(C)Oc1cc(N)c(Cl)cc1C(=O)N[C@H]1C[C@H]2CC[C@@H](C1)N2C (stereo partly drawn) [Example 28, endo-4-Amino-5-chloro-2-{(3-hexyn-2-yl)oxy}-N-(8-methyl-8-azabicyclo[3.2.1]oct-3-yl)benzamide hydrochloride]	> 100			
C#CC(C)Oc1cc(N)c(Cl)cc1C(=O)N[C@H]1C[C@H]2CC[C@@H](C1)N2C (stereo partly drawn) [Example 24, endo-4-Amino-2-{(3-butyn-2-yl)oxy}-5-chloro-N-(8-methyl-8-azabicyclo[3.2.1]oct-3-yl)benzamide hydrochloride]	0.17		13.2	
CCC#CC(CC)Oc1cc(N)c(Cl)cc1C(=O)N[C@H]1C[C@H]2CC[C@@H](C1)N2C (stereo partly drawn) [Example 25, endo-4-Amino-5-chloro-2-{(4-heptyn-3-yl)oxy)-N-(8-methyl-8-azabicyclo[3.2.1]oct-3-yl)benzamide hydrochloride]	1	0.891	26.3	
CC#CCOc1cc(N)c(Cl)cc1C(=O)N[C@H]1C[C@H]2CC[C@@H](C1)N2C [Example 22, endo-4-Amino-2-(2-butynyloxy)-5-chloro-N-(8-methyl-8-azabicyclo[3.2.1]oct-3-yl)benzamide hydrochloride]	> 100			
CC#CCCOc1cc(N)c(Cl)cc1C(=O)N[C@H]1C[C@H]2CC[C@@H](C1)N2C [Example 23, endo-4-Amino-5-chloro-N-(8-methyl-8-azabicyclo[3.2.1]oct-3-yl)-2-(3-pentynyloxy)benzamide hydrochloride]	> 100			
CC(Oc1cc(N)c(Cl)cc1C(=O)N[C@H]1C[C@H]2CC[C@@H](C1)N2C)C1CCCC1 (stereo partly drawn) [Example 32, endo-4-Amino-5-chloro-2-(1-cyclopentylethoxy)-N-(8-methyl-8-azabicyclo[3.2.1]oct-3-yl)benzamide hydrochloride]	> 100	0.933	18.3	
C#CCCOc1cc(N)c(Cl)cc1C(=O)N[C@H]1C[C@H]2CC[C@@H](C1)N2C [Example 46, endo-4-Amino-2-(3-butynyloxy)-5-chloro-N-(8-methyl-8-azabicyclo[3.2.1]oct-3-yl)benzamide hydrochloride]	0.16			
CN1[C@@H]2CC[C@H]1C[C@@H](NC(=O)c1cc(Cl)c(N)cc1OC1CCOCC1)C2 [Example 33, endo-4-Amino-5-chloro-N-(8-methyl-8-azabicyclo[3.2.1]-oct-3-yl)-2-(tetrahydro-4H-pyran-4-oxy)benzamide hydrochloride]	1.8	6.17		
CC#CC(C)Oc1cc(N)c(Cl)cc1C(=O)N[C@H]1C[C@H]2CC[C@@H](C1)N2C (single isomer, unassigned; (+)) [Example 36, (+)-endo-4-Amino-5-chloro-N-(8-methyl-8-azabicyclo[3.2.1]oct-3-yl)-2-{(3-pentyn-2-yl)oxy}benzamide hydrochloride]		1.91		minimal effective concentration ([1]; listed as 36 (-)-isomer, hydrochloride): 0.26 µM
C#CCC(C)Oc1cc(N)c(Cl)cc1C(=O)N[C@H]1C[C@H]2CC[C@@H](C1)N2C (stereo partly drawn) [Example 40, endo-4-Amino-5-chloro-N-(8-methyl-8-azabicyclo[3.2.1]oct-3-yl)-2-{(4-pentyn-2-yl)oxy}benzamide hydrochloride]	0.22		16.2	
